Starred links: 1 amine or outer side, 2 acyl side, 3 side chain; linkers in the order of their positions; H or OH if unused. Non-standard residues stand in square brackets, D forms with d. Residues, ends and D or L forms follow the SMILES beside them. Groups on a side chain read outwards from the residue. *: point of attachment. C18 diacid = O=C(O)CCCCCCCCCCCCCCCCC(=O)*; γGlu = O=C(O)[C@H](CCC(=O)[*:2])N[*:1]; αMeF = C[C@](N)(Cc1ccccc1)C(=O)O; AEEA = NCCOCCOCC(=O)O; Aib = CC(C)(N)C(=O)O
Columns and labels:
[1] = target: human GLP-1 receptor (hGLP-1R) (Homo sapiens, UniProt P43220); experiment: cAMP production (HTRF) in CHO cells expressing hGLP-1R; assay type: cell-based; design: expressed in transfected cells; conditions: for EC50: Table 6, peptides modified at position 17, cAMP in CHO hGLP-1R cells, geometric mean, read-out: hGLP-1R EC50; for % Relative Potency Ratio: Table 6, % GLP-1R activity relative to GLP-1 / % GlucR activity relative to glucagon
In short: (§1)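 Potency values represent EC50 from 4-parameter logistic curves of HTRF % Delta F signal. Receptor-expressing CHO cells (hGCGR 2×10^5 cells/mL, hGLP-1R 1×10^5 cells/mL) were exposed for 30 min at room temperature before two-step cAMP detection.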

[2] = target: human glucagon receptor (hGCGR) (Homo sapiens, UniProt P47871); experiment: cAMP production (HTRF) in CHO cells expressing hGCGR; assay type: cell-based; design: expressed in transfected cells; conditions: Table 6, peptides modified at position 17; cAMP in CHO hGCGR cells; geometric mean; read-out: hGluc-R EC50
In short: as §1

human glucagon receptor (hGCGR), sequence (P47871 26-477): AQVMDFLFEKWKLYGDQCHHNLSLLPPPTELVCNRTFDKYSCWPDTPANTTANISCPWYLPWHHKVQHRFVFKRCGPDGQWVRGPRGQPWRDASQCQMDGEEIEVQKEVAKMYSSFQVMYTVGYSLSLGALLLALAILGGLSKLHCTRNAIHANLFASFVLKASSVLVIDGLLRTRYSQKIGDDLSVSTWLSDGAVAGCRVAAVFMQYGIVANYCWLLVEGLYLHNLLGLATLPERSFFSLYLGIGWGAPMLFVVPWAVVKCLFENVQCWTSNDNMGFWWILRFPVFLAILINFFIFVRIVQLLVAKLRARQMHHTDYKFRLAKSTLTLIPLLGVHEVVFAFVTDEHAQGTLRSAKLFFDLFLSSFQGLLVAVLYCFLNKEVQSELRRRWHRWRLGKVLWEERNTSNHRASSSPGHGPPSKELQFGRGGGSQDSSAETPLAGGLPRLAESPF
human GLP-1 receptor (hGLP-1R), sequence (P43220 24-463): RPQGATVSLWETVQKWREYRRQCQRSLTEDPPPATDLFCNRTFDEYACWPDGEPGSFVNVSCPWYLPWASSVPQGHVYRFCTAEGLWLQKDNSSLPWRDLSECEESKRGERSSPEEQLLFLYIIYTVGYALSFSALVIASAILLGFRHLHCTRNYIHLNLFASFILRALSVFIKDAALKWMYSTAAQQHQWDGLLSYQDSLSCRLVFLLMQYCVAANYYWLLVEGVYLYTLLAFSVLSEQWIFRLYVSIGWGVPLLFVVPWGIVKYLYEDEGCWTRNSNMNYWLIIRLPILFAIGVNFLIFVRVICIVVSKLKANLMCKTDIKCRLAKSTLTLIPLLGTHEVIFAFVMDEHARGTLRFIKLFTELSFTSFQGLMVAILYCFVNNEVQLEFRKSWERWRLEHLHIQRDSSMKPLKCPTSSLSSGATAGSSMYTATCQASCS

Row | EC50 [1] | % Relative Potency Ratio [1] | EC50 [2] | Compound
1 | 0.0969 nM | 5.4 | 0.264 nM | CC(C)C[C@H](NC(=O)[C@H](Cc1c[nH]c2ccccc12)NC(=O)[C@H](CCCNC(=N)N)NC(=O)[C@@H](NC(=O)[C@H](Cc1ccccc1)NC(=O)[C@H](CC(=O)O)NC(=O)[C@H](CCC(N)=O)NC(=O)[C@H](C)NC(=O)[C@H](CCCNC(=N)N)NC(=O)[C@H](CCCCNC(=O)COCCOCCNC(=O)COCCOCCNC(=O)CC[C@H](NC(=O)CCCCCCCCCCCCCCCCC(=O)O)C(=O)O)NC(=O)[C@@H](NC(=O)[C@H](CC(=O)O)NC(=O)[C@H](CC(C)C)NC(=O)[C@](C)(Cc1ccccc1)NC(=O)[C@H](CCCCN)NC(=O)[C@H](CO)NC(=O)[C@@H](NC(=O)[C@H](CC(=O)O)NC(=O)[C@H](CO)NC(=O)[C@@H](NC(=O)[C@H](Cc1ccccc1)NC(=O)[C@@H](NC(=O)CNC(=O)[C@H](CCC(N)=O)NC(=O)C(C)(C)NC(=O)[C@@H](N)Cc1c[nH]cn1)[C@@H](C)O)[C@@H](C)O)C(C)C)[C@@H](C)O)C(C)C)C(=O)N[C@@H](CCC(=O)O)C(=O)NC(C)(C)C(=O)N[C@@H](CCC(=O)O)C(=O)O [Peptide 419] (H-H[Aib]QGTFTSDVSK[αMeF]LDTK([AEEA-AEEA-γGlu-C18 diacid])RAQDFVRWLE[Aib]E-OH; N-terminus assumed)
2 | 0.0873 nM | 4.1 | 0.18 nM | CC(C)C[C@H](NC(=O)[C@H](Cc1c[nH]c2ccccc12)NC(=O)[C@H](CCCNC(=N)N)NC(=O)[C@@H](NC(=O)[C@H](Cc1ccccc1)NC(=O)[C@H](CC(=O)O)NC(=O)[C@H](CCC(N)=O)NC(=O)[C@H](C)NC(=O)[C@H](CCCNC(=N)N)NC(=O)[C@H](CCCCNC(=O)COCCOCCNC(=O)COCCOCCNC(=O)CC[C@H](NC(=O)CCCCCCCCCCCCCCCCC(=O)O)C(=O)O)NC(=O)[C@H](CCCNC(=N)N)NC(=O)[C@H](CC(=O)O)NC(=O)[C@H](CC(C)C)NC(=O)[C@](C)(Cc1ccccc1)NC(=O)[C@H](CCCCN)NC(=O)[C@H](CO)NC(=O)[C@@H](NC(=O)[C@H](CC(=O)O)NC(=O)[C@H](CO)NC(=O)[C@@H](NC(=O)[C@H](Cc1ccccc1)NC(=O)[C@@H](NC(=O)CNC(=O)[C@H](CCC(N)=O)NC(=O)C(C)(C)NC(=O)[C@@H](N)Cc1c[nH]cn1)[C@@H](C)O)[C@@H](C)O)C(C)C)C(C)C)C(=O)N[C@@H](CC(C)C)C(=O)NC(C)(C)C(=O)N[C@H](C(=O)N[C@@H](CCC(=O)O)C(=O)O)[C@@H](C)O [Peptide 421] (H-H[Aib]QGTFTSDVSK[αMeF]LDRK([AEEA-AEEA-γGlu-C18 diacid])RAQDFVRWLL[Aib]TE-OH; N-terminus assumed)
3 | 0.0276 nM | 8.9 | 0.123 nM | CC(C)C[C@H](NC(=O)[C@H](Cc1c[nH]c2ccccc12)NC(=O)[C@H](CCCNC(=N)N)NC(=O)[C@@H](NC(=O)[C@H](Cc1ccccc1)NC(=O)[C@H](CC(=O)O)NC(=O)[C@H](CCC(N)=O)NC(=O)[C@H](C)NC(=O)[C@H](CCCNC(=N)N)NC(=O)[C@H](CCCCNC(=O)COCCOCCNC(=O)COCCOCCNC(=O)CC[C@H](NC(=O)CCCCCCCCCCCCCCCCC(=O)O)C(=O)O)NC(=O)[C@H](CCCNC(=N)N)NC(=O)[C@H](CC(=O)O)NC(=O)[C@H](CC(C)C)NC(=O)[C@](C)(Cc1ccccc1)NC(=O)[C@H](CCCCN)NC(=O)[C@H](CO)NC(=O)[C@@H](NC(=O)[C@H](CC(=O)O)NC(=O)[C@H](CO)NC(=O)[C@@H](NC(=O)[C@H](Cc1ccccc1)NC(=O)[C@@H](NC(=O)CNC(=O)[C@H](CCC(N)=O)NC(=O)C(C)(C)NC(=O)[C@@H](N)Cc1c[nH]cn1)[C@@H](C)O)[C@@H](C)O)C(C)C)C(C)C)C(=O)N[C@@H](CC(C)C)C(=O)NC(C)(C)C(=O)N[C@H](C(=O)N[C@@H](CCC(=O)O)C(N)=O)[C@@H](C)O [Peptide 422] (H-H[Aib]QGTFTSDVSK[αMeF]LDRK([AEEA-AEEA-γGlu-C18 diacid])RAQDFVRWLL[Aib]TE-NH2; N-terminus assumed)

Reference: US20250353891A1 (MEDIMMUNE LIMITED, priority 2022, published 2025)
